In patent US7629318B2, “Immunosuppressant compounds, methods and uses related thereto” (priority 2002, dated 2009):
Several values for one entry are separate records, joined by “and”; a condition that tells them apart may be missing. Identical values can stand only once. Like-named read-outs stand apart in the source and are kept apart here. Numbered stars: 1 amine (or outer) side, 2 acyl side, 3 side chain; on linkers, the order of the positions; unused ones are H or OH. Square brackets hold non-standard residues; d marks the D form. Peptide text beside a SMILES is read from it. * marks the point of attachment. ξ: configuration not given here. Gly(1-amidinopiperidin-4-yl) = N=C(N)N1CCC([C@H](N)C(=O)O)CC1; X1 = CC(C)c1oc([C@H](CO)N[*:1])nc1C(=O)[*:2]; Pro(3R-Ph) = O=C(O)[C@H]1NCC[C@@H]1c1ccccc1; Met(O) = CS(=O)CC[C@H](N)C(=O)O; Tic = O=C(O)[C@@H]1Cc2ccccc2CN1; Cha = N[C@@H](CC1CCCCC1)C(=O)O; NMe(benzyl) = CN(Cc1ccccc1)*; ξDisc = O=C(O)C1NCc2ccccc21; Nle = CCCC[C@H](N)C(=O)O; X3 = OCCOCCN*

Tests used:
[1] = molecular target: DR4Dw14 (DRA1*0101 DRB1*0404) (Homo sapiens, UniProt P01903+P01911, A100R/A169T/F76Y/I96L/K127E/L162R/M171V/N62H/P40V/Q125Y/R42H/S133A/S149N/S66Y/V209L/W38E); experiment: Competitive binding to MHC-II protein DR4Dw14; conditions: 0404; read-out: Protein binding IC50 (nM) 0404
Outline: (§1)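 Each MHC-II allele incubated with compound 16 hours at room temperature in duplicate; controls lacked compound, or both compound and MHC-II. Complexes captured 2 h at 4 °C, bound biotinylated peptide detected via europium-streptavidin and DELFIA enhancement, time-resolved fluorescence read at ex 340/em 613 (615) nm.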

[2] = molecular target: DR4Dw4 (DRA1*0101 DRB1*0401) (Homo sapiens, UniProt P01903+P01911, A100K/A169T/F76Y/I96L/K127E/L162R/M171V/N62H/P40V/Q125Y/R42H/S133A/S149N/S66Y/V115G/V209L/W38E); experiment: Competitive binding to MHC-II protein DR4Dw4
Outline: as §1

[3] = molecular target: Cathepsin B1 (EC 3.4.22.1 from bovine spleen) (Bos taurus, UniProt P07688); conditions: Cathepsin B, 4 h
[4] = molecular target: DR1 (DRA1*0101 DRB1*0101) (Homo sapiens, UniProt P01903+P01911, A100R/D57E/F55L/F60I/F76Y/I96L/L162R/M171V/P40L/Q125E/R42F/V115G/Y59C); experiment: Competitive binding to MHC-II protein DR1
Outline: as §1

[5] = tested on: T-cell proliferation, lymph node cells of chimeric 0401-IE transgenic mice; conditions: for Immunsupressive assays DR4-LN (Max) % Inhibition: maximal inhibition; for IC50: read-out: Immunsupressive assays DR4-LN (IC50); for Immunsupressive assays DR4-LN (Max) % Inhibition / IC50: DR4-LN
Outline: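 Antigen-primed lymph node cells (1.5×10^5/well) from mice lacking murine class II and carrying a chimeric human RA-associated class II transgene, cultured 3 days with ovalbumin at half-maximal dose plus compound (~0.1–200 uM) in serum-free HL-1. Proliferation read by 3H-thymidine incorporation over the final 16 h.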

[6] = tested on: T-cell proliferation, DR14-LN; conditions: for Immunsupressive assays DR14-LN (Max) % Inhibition: maximal inhibition; for IC50: read-out: Immunsupressive assays DR14-LN (IC50)
[7] = Protein binding IC50 (nM) 0101, 0101

Compound	IC50 [1] [nM]	IC50 ([2]; read-out: Protein binding IC50 (nM) 0401, 0401) [nM]	Stability (Arbitrary units) Cath B 4 h [3]	IC50 ([4]; read-out: Protein binding IC50 (nM) 0101, 0101) [nM]	Immunsupressive assays DR4-LN (Max) % Inhibition [5] [%]	IC50 [5]	IC50 [2] [nM]	IC50 [4, 7] [nM]	Immunsupressive assays DR14-LN (Max) % Inhibition [6]	IC50 [6] [nM]	immunosuppressive properties as measured by a T-cell activation assay, versus Arg equivalent ([5]; dose-response curve, compared to the Arg-containing peptide)	immunosuppressive properties as measured by a T-cell activation assay ([5]; dose-response curves)
CCCC[C@H](NC(=O)C1c2ccccc2CN1C(=O)[C@@H](NC(=O)[C@H](CC1CCCCC1)NC(C)=O)C1CCN(C(=N)N)CC1)C(=O)N(C)Cc1ccccc1 (single isomer, unassigned) [Compound P76-1, Ac-Cha-Gpg-Disc-Nle-N(Me)Bn]	1400	2300	100 Arbitrary units	550	103	34000 nM	–	–	–	–	–	–
CCCC[C@H](NC(=O)C1c2ccccc2CN1C(=O)[C@@H](NC(=O)[C@H](CC1CCCCC1)NC(C)=O)C1CCN(C(=N)N)CC1)C(=O)N(C)Cc1ccccc1 (single isomer, unassigned) [Compound P78-1]	1400	–	100 Arbitrary units	–	–	34000 nM	2300	550	–	–	–	–
CSCC[C@H](NC(=O)[C@@H]1Cc2ccccc2CN1C(=O)[C@H](CCCNC(=N)N)NC(=O)[C@H](CC1CCCCC1)NC(C)=O)C(N)=O [Compound P1, Ac-Cha-Arg-Tic-Met-NH2] (Ac-[Cha]R[Tic]M-NH2)	2300	–	87 Arbitrary units	–	41	64000 nM and 84000 nM	1600	260	–	–	–	–
CSCC[C@H](NC(=O)C1c2ccccc2CN1C(=O)[C@H](CCCNC(=N)N)NC(=O)[C@H](CC1CCCCC1)NC(C)=O)C(N)=O (stereo partly drawn) [Compound P12-1, Ac-Cha-Arg-Disc-Met-NH2] (Ac-[Cha]R[ξDisc]M-NH2)	860	–	96 Arbitrary units	–	5	> 200000 nM	370	430	–	–	–	–
CSCC[C@H](NC(=O)[C@@H]1Cc2ccccc2CN1C(=O)[C@H](CCCNC(=N)N)NC(=O)[C@H](CC1CCCCC1)NC(C)=O)C(=O)N1CC[C@H](c2ccccc2)[C@H]1C(N)=O [Compound P31, Ac-Cha-Arg-Tic-Met-βPhPro-NH2] (Ac-[Cha]R[Tic]M[Pro(3R-Ph)]-NH2)	850	–	102 Arbitrary units	–	64	18000 nM	280	290	89%	98000	–	–
CSCC[C@H](NC(=O)C1c2ccccc2CN1C(=O)[C@@H](NC(=O)[C@H](CC1CCCCC1)NC(C)=O)C1CCN(C(=N)N)CC1)C(=O)N1CC[C@H](c2ccccc2)[C@H]1C(=O)N[C@@H](CO)c1nc(C(=O)N(C)C)c(C(C)C)o1 (stereo partly drawn) [Compound P41-1, Ac-Cha-Gpg-Disc-Met-βPhPro-[S(oxaz)L]-NMe2] (Ac-[Cha][Gly(1-amidinopiperidin-4-yl)][ξDisc]M[Pro(3R-Ph)][X1]-NMe2)	110	–	104 Arbitrary units	–	96	49000 nM	200	160	98%	25000	–	–
CC(=O)N[C@@H](CC1CCCCC1)C(=O)N[C@H](C(=O)N1Cc2ccccc2C[C@H]1C(=O)N[C@@H](CC[S+](C)[O-])C(=O)N1CC[C@H](c2ccccc2)[C@H]1C(=O)N[C@@H](CO)c1nc(C(=O)N(C)C)c(C(C)C)o1)C1CCN(C(=N)N)CC1 (stereo partly drawn) [Compound P47, Ac-Cha-Gpg-Tic-Met(O)-βPhPro-[S(oxaz)L]-NMe2] (Ac-[Cha][Gly(1-amidinopiperidin-4-yl)][Tic][Met(O)][Pro(3R-Ph)][X1]-NMe2)	580	–	100 Arbitrary units	–	77	77000 nM	180	330	–	–	–	–
CCCC[C@H](NC(=O)[C@@H]1Cc2ccccc2CN1C(=O)[C@H](CCCNC(=N)N)NC(=O)[C@H](CC1CCCCC1)NC(C)=O)C(=O)N1CC[C@H](c2ccccc2)[C@H]1C(=O)N[C@@H](CO)c1nc(C(=O)N(C)C)c(C(C)C)o1 [Compound P51, Ac-Cha-Arg-Tic-Nle-βPhPro-[S(oxaz)L]-NMe2] (Ac-[Cha]R[Tic][Nle][Pro(3R-Ph)][X1]-NMe2)	210	–	103 Arbitrary units	–	100	38000 nM and 36000 nM	670	400	99%	52000	–	–
CCCC[C@H](NC(=O)[C@@H]1Cc2ccccc2CN1C(=O)[C@@H](NC(=O)[C@H](CC1CCCCC1)NC(C)=O)C1CCN(C(=N)N)CC1)C(=O)N1CC[C@H](c2ccccc2)[C@H]1C(=O)N[C@@H](CO)c1nc(C(=O)N(C)C)c(C(C)C)o1 [Compound P53, Ac-Cha-Gpg-Tic-Nle-βPhPro-[S(oxaz)L]-NMe2] (Ac-[Cha][Gly(1-amidinopiperidin-4-yl)][Tic][Nle][Pro(3R-Ph)][X1]-NMe2)	180	–	97 Arbitrary units	–	100	40000 nM	410	340	101%	32000	improved immunosuppressive properties	immunosuppressive properties
CSCC[C@H](NC(=O)[C@@H]1Cc2ccccc2CN1C(=O)[C@@H](NC(=O)[C@H](CC1CCCCC1)NC(C)=O)C1CCN(C(=N)N)CC1)C(=O)N1CC[C@H](c2ccccc2)[C@H]1C(=O)N[C@@H](CO)c1nc(C(=O)N(C)C)c(C(C)C)o1 [Compound P60, Ac-Cha-Gpg-Tic-Met-βPhPro-[S(oxaz)L]-NMe2] (Ac-[Cha][Gly(1-amidinopiperidin-4-yl)][Tic]M[Pro(3R-Ph)][X1]-NMe2)	190	–	88 Arbitrary units and 98 Arbitrary units	–	97	29000 nM	230	250	98%	41000	–	–
CSCC[C@H](NC(=O)C1c2ccccc2CN1C(=O)[C@@H](NC(=O)[C@H](CC1CCCCC1)NC(C)=O)C1CCN(C(=N)N)CC1)C(N)=O (stereo partly drawn) [Compound P66-1, Ac-Cha-Gpg-Disc-Met-NH2] (Ac-[Cha][Gly(1-amidinopiperidin-4-yl)][ξDisc]M-NH2)	590	–	102 Arbitrary units	–	20	120000 nM	290	290	–	–	–	–
CCCC[C@H](NC(=O)[C@@H]1Cc2ccccc2CN1C(=O)[C@@H](NC(=O)[C@H](CC1CCCCC1)NC(C)=O)C1CCN(C(=N)N)CC1)C(=O)NCCOCCO [Compound P70, Ac-Cha-Gpg-Tic-Nle-N(H)CH2CH2OCH2CH2OH] (Ac-[Cha][Gly(1-amidinopiperidin-4-yl)][Tic][Nle]-X3)	290	–	110 Arbitrary units	–	54	42000 nM	440	90	–	–	–	–
CCCC[C@H](NC(=O)[C@@H]1Cc2ccccc2CN1C(=O)[C@H](CCCNC(=N)N)NC(=O)[C@H](CC1CCCCC1)NC(C)=O)C(=O)N(C)Cc1ccccc1 [Compound P71, Ac-Cha-Arg-Tic-Nle-N(Me)Bn] (Ac-[Cha]R[Tic][Nle]-{NMe(benzyl)})	–	–	97 Arbitrary units	–	102	19000 nM	–	–	98% and 96%	15000	–	–
